Measured values taken from ChEMBL document CHEMBL1201862, “PubChem BioAssay data set” (2004).
The source made the active and inactive calls.

Columns and labels:
Estrogen receptor = molecular target: T1, Estrogen receptor (Homo sapiens, UniProt P03372);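 further: potency for inhibiting coactivator peptide recruitment to the receptor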
T1 sequence (P03372 whole entry): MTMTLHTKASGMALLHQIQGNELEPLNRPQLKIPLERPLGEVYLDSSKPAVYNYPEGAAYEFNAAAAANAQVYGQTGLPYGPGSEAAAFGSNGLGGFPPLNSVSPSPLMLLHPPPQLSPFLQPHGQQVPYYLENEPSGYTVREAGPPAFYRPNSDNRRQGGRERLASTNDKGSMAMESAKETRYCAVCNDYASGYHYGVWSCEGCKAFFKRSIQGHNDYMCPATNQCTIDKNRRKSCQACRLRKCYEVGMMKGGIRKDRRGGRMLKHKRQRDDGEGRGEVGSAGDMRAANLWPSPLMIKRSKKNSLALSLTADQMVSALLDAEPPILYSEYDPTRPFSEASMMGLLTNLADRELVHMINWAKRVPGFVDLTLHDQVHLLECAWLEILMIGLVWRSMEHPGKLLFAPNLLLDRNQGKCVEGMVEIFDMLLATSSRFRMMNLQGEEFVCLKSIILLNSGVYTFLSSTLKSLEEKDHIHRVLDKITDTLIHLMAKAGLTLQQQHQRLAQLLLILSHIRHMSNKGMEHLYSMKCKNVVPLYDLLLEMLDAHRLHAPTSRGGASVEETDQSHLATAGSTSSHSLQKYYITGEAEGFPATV

[1] = molecular target: T2, Heat shock 70 kDa protein 1A (Homo sapiens, UniProt P0DMV8); test: small-molecule inhibition of Hsp70 – biochemical, TR-FRET (AID 786)
[2] = molecular target: T2, Heat shock 70 kDa protein 1A; test: small molecules displacing fluorescent ligand from Hsp70 – biochemical, fluorescence polarization, primary screen (AID 583)
Estrogen receptor beta = Estrogen receptor beta (Homo sapiens, UniProt Q92731);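 further: recombinant ER-beta bound to coactivator SRC1 peptide in presence of estradiol agonist; inhibitors block coactivator peptide binding and lower the FRET signal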
Bcl-2-like protein 10 = Bcl-2-like protein 10 (Homo sapiens, UniProt Q9HD36); test: Concentration-response of Bcl-B inhibitors by biochemical FP with TR3 (AID 1243); type: functional
Cytochrome P450 2D6 = Cytochrome P450 2D6 (Homo sapiens, UniProt P10635); test: qHTS Assay for Inhibitors and Substrates of Cytochrome P450 2D6. [Related pubchem assays: 410 ]; type: ADME; conditions: read-out: Potency
[3] = molecular target: Peroxisome proliferator-activated receptor gamma/Nuclear receptor coactivator 1 (Homo sapiens, UniProt P37231); type: functional;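 further: agonist potency as compounds enhance coactivator SRC-1 recruitment to PPARgamma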
[4] = molecular target: 26S proteasome non-ATPase regulatory subunit 14 (Homo sapiens, UniProt O00487); test: inhibition of proteasome subunit RPN11 – biochemical, fluorescence polarization, uHTS hits, confirmation (AID 602368); type: functional
[5] = Trypanosoma cruzi growth suppression in host cells – NIH3T3 host cells, beta-gal luminescence, confirmation (AID 2044); type: functional, cell-based;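 further: intracellular parasites grown in NIH/3T3 mouse fibroblasts as host cells; luminescent beta-galactosidase reporter signal from transgenic T. cruzi replicating inside host cells; inhibitors lower the luminescence signal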
[6] = molecular target: 72 kDa type IV collagenase (Homo sapiens, UniProt P08253); test: Dose Response validation of uHTS RPN11 inhibitor hits using a MMP-2 Fluorescence assay.; type: functional
[7] = molecular target: Delta-type opioid receptor (Homo sapiens, UniProt P41143); test: Counterscreen for agonists of heterodimerization of the mu 1 (OPRM1) and delta 1 (OPRD1) opioid receptors: Luminescence-based cell-based high throughput dose response assay to identify agonists of OPRD1 homodimerization. [Related pubchem assays (depositor defined):AID504326, AID504355, AID504692, AID504904, AID504905]; type: functional
[8] = NIH3T3 cell viability loss – ATP luminescence, mouse fibroblasts, counter-screen, dose response (AID 2010); type: functional, cell-based;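 further: cells exposed to compound for about 90 hours before reading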
[9] = Luminescence Cell-Based Dose Response HTS to Identify Inhibitors of 5'UTR Stem-Loop Driven Prion Protein mRNA Translation in H4 Neuroglioblastoma Cells. [Related pubchem assays: 1827 (Project Summary), 1813 (Primary HTS)]; type: functional
Mu-type opioid receptor = Mu-type opioid receptor (Homo sapiens, UniProt P35372); test: Counterscreen for agonists of heterodimerization of the mu 1 (OPRM1) and delta 1 (OPRD1) opioid receptors: Luminescence-based cell-based high throughput dose response assay to identify agonists of OPRM1 homodimerization.; type: functional;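 further: U2OS cells expressing OPRM1 and beta-arrestin as split beta-galactosidase partners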
[10] = molecular target: Protein-tyrosine kinase 2-beta (Homo sapiens, UniProt Q14289);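 further: potency of inhibitors of PYK2 kinase phosphorylation of poly-GT substrate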
[11] = molecular target: Peroxisome proliferator-activated receptor gamma/Nuclear receptor coactivator 2 (Homo sapiens, UniProt P37231); type: functional;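 further: agonist potency for raising coactivator recruitment to the receptor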
[12] = molecular target: Peroxisome proliferator-activated receptor gamma/Nuclear receptor coactivator 3 (Homo sapiens, UniProt P37231); type: functional;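 further: agonist potency for raising coactivator recruitment to the receptor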
Prothrombin = Prothrombin (Bos taurus, UniProt P00735); test: thrombin protease inhibitors – biochemical, fluorescence polarization, uHTS hits, dose response (AID 602369); type: functional
[13] = molecular target: 5-hydroxytryptamine receptor 5A (Homo sapiens, UniProt P47898); test: Counterscreen for agonists of OPRM1-OPRD1 heterodimerization: luminescence-based cell-based high throughput dose response assay to identify agonists of 5-hydroxytryptamine (serotonin) 5A receptor (HTR5A). [Related pubchem assays (depositor defined):AID504326, AID504355, AID504692, AID504904, AID504905]; type: functional
[14] = CCR5-tropic HIV-1 fusion blockers – cell-based, CCR5-tropic Env, dose response (AID 2279); type: functional
[15] = molecular target: Heat shock protein HSP 90-alpha (Homo sapiens, UniProt P07900); test: Luminescence-based dose response biochemical high throughput screening assay for inhibitors of the Heat Shock Protein 90 (HSP90). [Related pubchem assays: 1831 (Summary AID.), 1846 (Confirmation screen.), 1789 (Primary screen.)]

T2 sequence (P0DMV8 whole entry): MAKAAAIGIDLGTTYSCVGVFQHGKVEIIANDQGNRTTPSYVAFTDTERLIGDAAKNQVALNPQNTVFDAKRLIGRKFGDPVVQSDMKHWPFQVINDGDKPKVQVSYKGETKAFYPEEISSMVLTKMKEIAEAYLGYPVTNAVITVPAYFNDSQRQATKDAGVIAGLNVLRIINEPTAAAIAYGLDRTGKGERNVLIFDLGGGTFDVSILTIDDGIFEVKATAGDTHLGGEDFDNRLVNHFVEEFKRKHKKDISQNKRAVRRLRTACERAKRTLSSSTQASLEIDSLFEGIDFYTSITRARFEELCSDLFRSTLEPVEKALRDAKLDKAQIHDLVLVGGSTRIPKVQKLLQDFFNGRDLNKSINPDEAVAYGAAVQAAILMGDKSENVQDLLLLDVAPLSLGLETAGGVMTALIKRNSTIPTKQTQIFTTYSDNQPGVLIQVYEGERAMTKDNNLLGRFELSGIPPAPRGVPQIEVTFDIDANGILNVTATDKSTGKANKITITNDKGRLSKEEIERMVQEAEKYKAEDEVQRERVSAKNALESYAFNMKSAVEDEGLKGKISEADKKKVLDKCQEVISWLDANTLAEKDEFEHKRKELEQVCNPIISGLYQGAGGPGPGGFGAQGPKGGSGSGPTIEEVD
Sequence of Protein-tyrosine kinase 2-beta (Q14289 whole entry): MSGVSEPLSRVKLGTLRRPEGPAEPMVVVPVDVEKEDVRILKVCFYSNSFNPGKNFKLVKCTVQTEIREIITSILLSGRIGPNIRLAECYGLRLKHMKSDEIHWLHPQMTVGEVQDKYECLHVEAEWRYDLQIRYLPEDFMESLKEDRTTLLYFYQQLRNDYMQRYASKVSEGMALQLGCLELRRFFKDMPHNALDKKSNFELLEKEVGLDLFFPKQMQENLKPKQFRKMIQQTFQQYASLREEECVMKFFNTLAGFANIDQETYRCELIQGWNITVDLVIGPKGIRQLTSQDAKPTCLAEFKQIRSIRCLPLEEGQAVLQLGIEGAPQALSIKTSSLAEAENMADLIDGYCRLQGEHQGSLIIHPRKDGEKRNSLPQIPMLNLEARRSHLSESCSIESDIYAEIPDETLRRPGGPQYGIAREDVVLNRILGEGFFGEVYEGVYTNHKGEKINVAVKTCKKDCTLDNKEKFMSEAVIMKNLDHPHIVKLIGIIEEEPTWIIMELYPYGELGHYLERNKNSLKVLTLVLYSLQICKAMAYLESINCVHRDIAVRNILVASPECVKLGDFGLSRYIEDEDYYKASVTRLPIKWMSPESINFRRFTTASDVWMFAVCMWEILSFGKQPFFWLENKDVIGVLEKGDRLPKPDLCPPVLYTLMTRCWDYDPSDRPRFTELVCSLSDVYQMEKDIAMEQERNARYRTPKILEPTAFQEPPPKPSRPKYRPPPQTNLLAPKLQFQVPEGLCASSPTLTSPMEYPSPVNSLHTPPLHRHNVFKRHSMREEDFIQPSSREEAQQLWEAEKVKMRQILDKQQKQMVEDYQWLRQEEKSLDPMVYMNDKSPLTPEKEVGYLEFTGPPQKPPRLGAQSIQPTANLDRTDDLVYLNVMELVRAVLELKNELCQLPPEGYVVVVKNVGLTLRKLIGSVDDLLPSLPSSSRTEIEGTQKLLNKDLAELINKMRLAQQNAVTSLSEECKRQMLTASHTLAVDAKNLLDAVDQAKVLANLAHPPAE
Sequence of Bcl-2-like protein 10 (Q9HD36 whole entry): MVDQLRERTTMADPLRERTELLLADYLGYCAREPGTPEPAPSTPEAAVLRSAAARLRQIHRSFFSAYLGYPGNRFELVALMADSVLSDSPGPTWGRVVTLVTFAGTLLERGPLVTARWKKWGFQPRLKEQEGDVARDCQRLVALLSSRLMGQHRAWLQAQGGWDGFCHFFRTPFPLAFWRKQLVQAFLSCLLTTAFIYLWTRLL
Sequence of 72 kDa type IV collagenase (P08253 whole entry): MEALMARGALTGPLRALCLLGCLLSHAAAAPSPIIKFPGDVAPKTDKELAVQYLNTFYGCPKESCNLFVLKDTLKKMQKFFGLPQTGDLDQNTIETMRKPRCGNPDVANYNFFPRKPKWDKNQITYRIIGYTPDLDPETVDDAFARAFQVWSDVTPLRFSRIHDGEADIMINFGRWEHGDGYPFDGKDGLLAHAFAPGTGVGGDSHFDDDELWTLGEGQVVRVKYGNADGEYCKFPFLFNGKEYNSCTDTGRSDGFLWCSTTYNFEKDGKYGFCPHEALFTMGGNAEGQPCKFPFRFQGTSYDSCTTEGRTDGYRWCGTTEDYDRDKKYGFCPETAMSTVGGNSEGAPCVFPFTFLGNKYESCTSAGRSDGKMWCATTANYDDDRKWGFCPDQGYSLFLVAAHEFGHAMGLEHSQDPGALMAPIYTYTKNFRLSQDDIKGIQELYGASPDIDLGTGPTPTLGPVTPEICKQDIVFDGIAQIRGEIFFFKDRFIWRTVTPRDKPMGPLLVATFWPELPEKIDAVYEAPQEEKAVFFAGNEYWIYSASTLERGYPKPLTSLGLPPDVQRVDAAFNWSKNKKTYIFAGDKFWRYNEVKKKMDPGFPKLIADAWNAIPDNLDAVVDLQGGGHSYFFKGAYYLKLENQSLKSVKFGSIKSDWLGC
Sequence of Peroxisome proliferator-activated receptor gamma/Nuclear receptor coactivator 2 (P37231 whole entry): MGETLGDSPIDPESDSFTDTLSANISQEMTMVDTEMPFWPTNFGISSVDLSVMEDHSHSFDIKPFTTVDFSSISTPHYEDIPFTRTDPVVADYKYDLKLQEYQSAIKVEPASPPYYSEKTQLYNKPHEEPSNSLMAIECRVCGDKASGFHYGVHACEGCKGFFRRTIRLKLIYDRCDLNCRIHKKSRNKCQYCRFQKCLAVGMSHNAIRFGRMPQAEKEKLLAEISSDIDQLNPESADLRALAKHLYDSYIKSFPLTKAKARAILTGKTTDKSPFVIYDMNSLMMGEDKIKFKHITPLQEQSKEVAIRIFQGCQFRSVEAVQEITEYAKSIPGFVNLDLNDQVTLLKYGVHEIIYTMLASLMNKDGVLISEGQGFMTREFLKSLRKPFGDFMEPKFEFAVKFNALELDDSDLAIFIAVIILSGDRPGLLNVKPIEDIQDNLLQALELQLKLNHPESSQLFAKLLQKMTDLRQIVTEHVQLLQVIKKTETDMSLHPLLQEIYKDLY
Sequence of Peroxisome proliferator-activated receptor gamma/Nuclear receptor coactivator 2 (Q15596 whole entry, further chain): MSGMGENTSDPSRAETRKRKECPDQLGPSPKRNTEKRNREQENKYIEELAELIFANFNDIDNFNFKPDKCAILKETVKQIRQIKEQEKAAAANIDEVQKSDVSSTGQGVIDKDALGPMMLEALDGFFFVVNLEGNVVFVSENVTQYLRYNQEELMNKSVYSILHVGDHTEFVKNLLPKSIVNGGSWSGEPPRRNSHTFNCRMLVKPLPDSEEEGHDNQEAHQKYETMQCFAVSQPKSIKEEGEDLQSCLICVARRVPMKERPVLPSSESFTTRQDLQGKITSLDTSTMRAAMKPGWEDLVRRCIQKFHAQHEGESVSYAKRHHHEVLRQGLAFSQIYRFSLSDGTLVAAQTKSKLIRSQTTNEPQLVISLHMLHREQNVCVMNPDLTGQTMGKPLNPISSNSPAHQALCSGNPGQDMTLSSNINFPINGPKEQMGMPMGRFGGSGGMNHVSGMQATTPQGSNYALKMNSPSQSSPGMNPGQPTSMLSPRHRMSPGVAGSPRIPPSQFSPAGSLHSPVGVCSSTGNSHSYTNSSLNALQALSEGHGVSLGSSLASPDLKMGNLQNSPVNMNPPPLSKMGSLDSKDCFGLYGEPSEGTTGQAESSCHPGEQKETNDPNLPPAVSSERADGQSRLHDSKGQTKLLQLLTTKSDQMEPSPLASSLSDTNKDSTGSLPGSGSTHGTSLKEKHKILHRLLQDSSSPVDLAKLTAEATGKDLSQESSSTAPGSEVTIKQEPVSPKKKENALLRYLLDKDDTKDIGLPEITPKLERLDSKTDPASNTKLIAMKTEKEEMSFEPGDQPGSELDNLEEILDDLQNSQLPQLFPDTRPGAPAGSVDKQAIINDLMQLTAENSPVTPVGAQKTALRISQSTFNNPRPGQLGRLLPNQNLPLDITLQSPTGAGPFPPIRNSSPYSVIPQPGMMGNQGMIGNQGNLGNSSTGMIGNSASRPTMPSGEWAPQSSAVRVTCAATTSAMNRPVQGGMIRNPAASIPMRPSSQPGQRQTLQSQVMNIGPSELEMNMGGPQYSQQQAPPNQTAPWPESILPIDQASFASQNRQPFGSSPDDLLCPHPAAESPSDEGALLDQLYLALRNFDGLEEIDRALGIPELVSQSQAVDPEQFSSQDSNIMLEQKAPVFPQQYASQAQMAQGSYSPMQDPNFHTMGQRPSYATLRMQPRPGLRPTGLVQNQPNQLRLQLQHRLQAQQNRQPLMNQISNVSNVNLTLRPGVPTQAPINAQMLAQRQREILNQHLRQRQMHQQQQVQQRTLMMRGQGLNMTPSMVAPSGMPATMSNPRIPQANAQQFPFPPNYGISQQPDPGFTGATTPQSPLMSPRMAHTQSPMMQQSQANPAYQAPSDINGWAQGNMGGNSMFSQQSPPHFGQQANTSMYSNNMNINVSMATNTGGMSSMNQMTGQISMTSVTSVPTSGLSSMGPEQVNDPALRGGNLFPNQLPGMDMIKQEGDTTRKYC
Sequence of Estrogen receptor beta (Q92731 whole entry): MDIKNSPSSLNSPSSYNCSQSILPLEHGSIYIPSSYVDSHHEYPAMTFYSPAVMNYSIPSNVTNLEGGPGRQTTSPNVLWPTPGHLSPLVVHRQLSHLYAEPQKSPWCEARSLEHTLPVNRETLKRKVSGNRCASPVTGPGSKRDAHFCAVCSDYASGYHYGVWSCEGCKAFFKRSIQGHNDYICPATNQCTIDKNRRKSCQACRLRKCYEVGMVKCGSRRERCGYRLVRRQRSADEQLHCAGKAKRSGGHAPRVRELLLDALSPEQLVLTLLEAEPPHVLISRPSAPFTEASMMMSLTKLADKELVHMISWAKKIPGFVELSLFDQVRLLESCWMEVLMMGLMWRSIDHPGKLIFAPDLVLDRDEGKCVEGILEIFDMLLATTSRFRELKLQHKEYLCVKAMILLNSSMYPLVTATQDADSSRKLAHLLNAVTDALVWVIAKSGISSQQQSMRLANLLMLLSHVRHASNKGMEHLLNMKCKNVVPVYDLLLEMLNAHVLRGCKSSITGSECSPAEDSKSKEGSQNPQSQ

NC(=O)COc1ccc(C2c3c(oc4ccccc4c3=O)C(=O)N2CC2CCCO2)cc1 (stereo unspecified)
IC50 (Estrogen receptor): > 50 µM (not active)
IC50 [1]: 16 µM (active)
IC50 [2]: 55.1 µM (active)
IC50 (Estrogen receptor beta): > 50 µM (not active)

O=S(=O)(O)c1cccc2cccc(Nc3ccccc3)c12
EC50 (Bcl-2-like protein 10): 2.95 µM (active)

CC1(O)C(=O)C=C2C=C3CCCN3C=C2C1=O (stereo unspecified)
AC50 (Cytochrome P450 2D6): 7.94 µM (inconclusive)

O=C(COc1ccc(/C=N/NC(=O)c2cc3ccccc3o2)cc1Br)Nc1ccccc1
EC50 [3]: > 79.4 µM (not active)
IC50 [4]: 12.4 µM (active)
EC50 [5]: 1.97 µM (active)
IC50 [6]: > 100 µM (inactive)
EC50 [7]: > 92.5 µM (inactive)
EC50 [8]: > 60 µM (not active)
EC50 [9]: 9.11 µM (inconclusive)
EC50 (Mu-type opioid receptor): > 92.5 µM (inactive)
IC50 [10]: > 2.57 µM (not active)
EC50 [11]: > 79.4 µM (not active)
EC50 [12]: > 79.4 µM (not active)
IC50 (Prothrombin): 76.3 µM (active)
EC50 [13]: > 92.5 µM (inactive)

COc1cc(/C=N/Nc2ccc(Cl)c(C(=O)O)c2)ccc1OC(=O)c1ccc(F)cc1
IC50 [14]: 4.76 µM (active)
IC50 [15]: 0.874 µM (active)
